Data set [1] is described as follows: Solubility of purified cluster in saturated aqueous poly(vinyl alcohol) solution. Format: physicochemical. The conditions noted are these: saturated PVA (MW 50k-85k, hydrolyzed), stirred. An excerpt:
The solubility of (Ta6Cl12)Cl2 in an aqueous solution of saturated polyvinyl alcohol) (PVA) was investigated by stirring purified (Ta6Cl12)Cl2 with a solution of saturated PVA (MW-50k-85k, hydrolyzed). […] It appeared that PVA complexes of tantalum clusters were poorly soluble in water.

Data set [2] in a line: Cluster concentration from saturated solutions in a variety of solvents (solubility). In kind it is physicochemical. As to the method:
Optical absorbencies at ˜330 and ˜400 nm were used to track cluster concentration in solution. An approximate molar extinction coefficient was determined by dissolving an isolated and purified cluster sample in water and measuring its absorption. […] Early in the study, the highest sample concentration was 30 mM.
Substitutional doping of divalent zinc on trivalent tantalum sites provides for a reduction in the overall cluster charge. A reduction in the overall cluster charge is also attainable by adjusting the redox chemistry of the starting mixture. Target materials include (Ta6Cl12)Cl2, (Ta6Br12)Cl2, […], (Ta6Br12)Br2, (Ta6I12)I2, (Ta6Cl11O)Cl2, (Ta6Cl11S)CI2, and (Ta5ZnCl12)Cl2. […] These compositions were targeted to elicit materials with enhanced solubility or molecular handles that could be leveraged to further enhance the solubility. […] In the table below, EtOH stands for ethyl alcohol, EG stands for ethylene glycol, PS80 stands for Polysorbate 80, DMSO stands for dimethyl sulfoxide, and EDTA stands for ethylenediaminetetraacetic acid.
The solubility of (Ta6Cl12)Cl2 in an aqueous solution of saturated polyvinyl alcohol) (PVA) was investigated by stirring purified (Ta6Cl12)Cl2 with a solution of saturated PVA (MW-50k-85k, hydrolyzed).

How the values of data set [3] were obtained:
An ultrapurified tantalum cluster of formula (Ta6Cl12)Cl2 (Ultra Purified Ta Ta:TaCl5=1.2) was dissolved in water at a concentration of 355 mM, and in ethylene glycol at a concentration of 592 mM. The resulting water solutions were subjected to radiography to gauge their X-ray absorption characteristics. The samples were loaded into 2 mL polypropylene screw cap tubes with a 1 cm inner diameter. These samples were imaged alongside four calibration standards: 1) aluminum step wedge, 2) polycarbonate step wedge, 3) tantalum foils from 0.0127 to 0.5 mm thick, and 4) a water dilution series containing from 0 to 100% by volume of GE Healthcare's iodinated contrast agent, Visipaque, that contains 320 mg I/mL, in the same 2 mL tubes. Images were collected on a GE Healthcare OEC 9900 Elite digital X-ray Imaging System with a Tri-mode Image Intensifier at 50 KeV with filament currents varied from 0.4 to 9.0 mA. FIG. 2 below is a characteristic image of candidate aqueous samples (first two samples from the left) from the left, marked A and B) alongside calibration samples.
FIG. 3 is imaged through 8 cm of water serving as a low X-ray energy filter and simulating an arm or leg phantom to produce clinically equivalent images. […]

Regarding (Ta6Cl12)Cl2, the “Solubility in aqueous solution of saturated poly(vinyl alcohol)” value in data set [1] is “most of the color was lost as a deep green precipitate formed”.

For (Ta6Cl12)Cl2 [Ta Red, Ta:TaCl5=1.2], in data set [2], the “Cluster concentration from saturated solution, 5% EDTA” value is listed as 12 mM; the “Cluster concentration from saturated solution, DMSO” value is 2 mM; the “Cluster concentration from saturated solution, H2O” value amounted to 59 mM.

Turning to (Ta6Cl12)Cl2 [Ultra purified Ta Red], in data set [3], the “Remaining soluble cluster X-ray absorption, as equivalent Visipaque calibration solution” value is on record as approximately 37.5% and the “Remaining soluble cluster X-ray absorption, as equivalent tantalum foil stack thickness” value is reported as approximately 0.0889 mm. Further, in data set [2], the “Cluster concentration from saturated solution, EG” value amounted to 592 mM and the “Cluster concentration from saturated solution, H2O” value amounted to 355 mM.
